pIC50: −log10 of the molar value.
Tests used:
[1] = target: Lysine-specific histone demethylase 1A (Homo sapiens, UniProt O60341); test: LSD1 Screening Assay; settings: pH 7.5; 25 °C
Experimental: The LSD1 screening biochemical assay was performed by Shanghai ChemPartner Co. Ltd and the detailed protocol was shown as followed. The AlphaLISA assay of LSD1 (BPS Bioscience) was performed in modified Tris buffer (pH 7.5). Briefly, the compoundsin DMSO were transferred to assay plate by Echo 550, followed by pre-incubating with enzyme (final concentration is 5 nM) for 15 min at room temperature. The initiation of reactions were added H3K4me2 peptide solution (final concentration is 100 nM) to the reaction mixtures and then incubated for 60 min at roomtemperature. The reactions were terminated by the addition of the acceptor and donor beads mix (PerkinElmer) and incubated for 60 min at room temperature, and finally read on EnSpire (PerkinElmer) in Alpha Mode.

[2] = target: T1, Amine oxidase [flavin-containing] A (Homo sapiens, UniProt P21397); test: MAO-A and MAO-B Assay
T1 sequence (P21397 whole entry): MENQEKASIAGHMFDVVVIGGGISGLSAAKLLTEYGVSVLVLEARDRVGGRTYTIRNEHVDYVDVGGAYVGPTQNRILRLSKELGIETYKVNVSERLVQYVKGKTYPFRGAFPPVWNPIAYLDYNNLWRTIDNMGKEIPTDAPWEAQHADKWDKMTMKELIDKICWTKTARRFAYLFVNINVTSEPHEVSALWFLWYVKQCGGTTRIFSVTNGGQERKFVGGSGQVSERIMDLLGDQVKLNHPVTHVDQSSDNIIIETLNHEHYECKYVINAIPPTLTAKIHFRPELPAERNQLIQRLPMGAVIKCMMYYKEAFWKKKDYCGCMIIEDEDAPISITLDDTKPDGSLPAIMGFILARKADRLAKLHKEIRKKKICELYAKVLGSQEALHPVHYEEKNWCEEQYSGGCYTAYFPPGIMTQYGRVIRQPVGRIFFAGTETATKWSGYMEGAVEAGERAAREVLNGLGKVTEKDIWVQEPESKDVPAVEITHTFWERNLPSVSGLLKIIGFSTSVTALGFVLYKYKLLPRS
Description: (§1) The MAO-A and MAO-B is purchased from Active Motif (Cat#31502, Cat#31503). Biochemical Kit is purchased from Promega (MAO-Glo Assay, V1402). The inhibition of selectivity assay was preformed in light of the manufacturer's protocol.

[3] = target: T2, Amine oxidase [flavin-containing] B (Homo sapiens, UniProt P27338); test: MAO-A and MAO-B Assay
T2 sequence (P27338 whole entry): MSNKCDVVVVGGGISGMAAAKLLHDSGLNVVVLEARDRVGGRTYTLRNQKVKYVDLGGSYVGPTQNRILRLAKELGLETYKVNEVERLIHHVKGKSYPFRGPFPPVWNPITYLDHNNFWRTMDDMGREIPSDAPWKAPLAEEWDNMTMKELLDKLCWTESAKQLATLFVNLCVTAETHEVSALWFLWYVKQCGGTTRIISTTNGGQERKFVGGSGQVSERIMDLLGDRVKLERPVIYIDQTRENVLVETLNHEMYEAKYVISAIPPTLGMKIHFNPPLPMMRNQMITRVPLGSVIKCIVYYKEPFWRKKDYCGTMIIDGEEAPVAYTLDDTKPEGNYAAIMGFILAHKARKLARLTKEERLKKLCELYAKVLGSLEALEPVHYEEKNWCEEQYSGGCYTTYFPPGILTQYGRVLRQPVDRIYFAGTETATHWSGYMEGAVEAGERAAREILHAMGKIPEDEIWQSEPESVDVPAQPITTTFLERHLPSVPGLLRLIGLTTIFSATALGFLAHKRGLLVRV
Description: as §1

Structure (SMILES)	pIC50 [1]	pIC50 [2]	pIC50 [3]
CC(Nc1cc(Cl)ccc1O)C(=O)Nc1cccc(S(=O)(=O)N(C)C)c1 (stereo not drawn)	4.92		
CN(CC(=O)Nc1cccc(S(=O)(=O)N(C)C)c1)c1cc(Cl)ccc1O [2-((5-Chloro-2-hydroxyphenyl)(methyl)amino)-N-(3-(N,N-dimethylsulfamoyl)phenyl)acetamide (7e)]	4.89		
CN(CC(=O)Nc1cccc(S(=O)(=O)N2CCOCC2)c1)c1cc(Cl)ccc1O [2-((5-Chloro-2-hydroxyphenyl)(methyl)amino)-N-(3-(morpholinosulfonyl)phe-nyl)acetamide (7b)]	5.02	3.73	4.18
CN(CC(=O)Nc1cccc(S(=O)(=O)N2CCCCC2)c1)c1cc(Cl)ccc1O [2-((5-Chloro-2-hydroxyphenyl)(methyl)amino)-N-(3-(piperidin-1-ylsulfonyl)phenyl)acetamide (7g)]	4.96		
CN(C)S(=O)(=O)c1cccc(NC(=O)CNc2cc(Cl)ccc2O)c1 [2-((5-Chloro-2-hydroxyphenyl)amino)-N-(3-(N,N-dimethylsulfamoyl)phenyl)-acetamide (7d)]	4.85		
O=C(CNc1cc(Cl)ccc1O)Nc1cccc(S(=O)(=O)N2CCOCC2)c1 [2-((5-Chloro-2-hydroxyphenyl)amino)-N-(3-(morpholinosulfonyl)phenyl)acetamide (7a)]	4.89		
CC(Nc1cc(Cl)ccc1O)C(=O)Nc1cccc(S(=O)(=O)N2CCOCC2)c1 (stereo not drawn) [2-((5-Chloro-2-hydroxyphenyl)amino)-N-(3-(morpholinosulfonyl)phenyl)propanamide (7c)]	4.89		
CC(Nc1cc(Cl)ccc1O)C(=O)Nc1cccc(S(=O)(=O)N2CCCCC2)c1 (stereo not drawn) [2-((5-Chloro-2-hydroxyphenyl)amino)-N-(3-(piperidin-1-ylsulfonyl)phenyl)propanamide (7h)]	5.16	3.94	3.99
C/C(=N\NC(=O)c1cccc(S(=O)(=O)N2CCOCC2)c1)c1cc(Cl)ccc1O [US8987335, 12]	7.96		

Source: BindingDB's records for doi:10.1016/j.bioorg.2017.04.006 (China Pharmaceutical University, 2017)
